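Five concentrations, 48 hours, 96-well plates. TGI marks complete inhibition of growth.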
How the values were obtained:
Test in all cases: NCI tumour cell line growth inhibition, 48 h
DMS 273 small cell lung = system: DMS 273 small cell lung
LXFL 529 NSCLC = system: LXFL 529 NSCLC
M19-MEL melanoma = system: M19-MEL melanoma
XF 498 CNS = system: XF 498 CNS
DLD-1 colon = system: DLD-1 colon
KM20L2 colon = system: KM20L2 colon
SNB-78 CNS = system: SNB-78 CNS
RXF-631 renal = system: RXF-631 renal
HOP-18 NSCLC = system: HOP-18 NSCLC
P388/ADR leukemia = system: P388/ADR leukemia
SN12K1 renal = system: SN12K1 renal
P388 leukemia = system: P388 leukemia

Row | Compound | TGI (DMS 273 small cell lung) [µM] | TGI (LXFL 529 NSCLC) [µM] | TGI (M19-MEL melanoma) [µM] | TGI (XF 498 CNS) [µM] | TGI (DLD-1 colon) [µM] | TGI (KM20L2 colon) [µM] | TGI (SNB-78 CNS) [µM] | TGI (RXF-631 renal) [µM] | TGI (HOP-18 NSCLC) [µM] | TGI (P388/ADR leukemia) [µM] | TGI (SN12K1 renal) [µM] | TGI (P388 leukemia) [µM]
1 | Cc1ccc(S(=O)(=O)c2c3[nH]c4ccccc4nc3n3c2nc2ccccc23)cc1 | > 100 | > 100 | > 100 | > 100 | > 100 | > 100 | > 100 | – | – | – | – | –
2 | CCCCCCCSCC1C(=O)C23C(O)C1CCC2C12COC3(O)C(O)C1C(C)(C)CCC2O (stereo not given) | 27.3 | 6.88 | 31.6 | 33.4 | 30 | 25 | 47.4 | 22 | 25 | – | – | –
3 | CCN(CC)c1cccc2c1C1(O)CCC3(CC21)OCCCCO3 (stereo not given) | > 100 | > 100 | > 100 | – | > 100 | > 100 | > 100 | – | > 100 | – | – | –
4 | C=CCCCCCC(O)C(O)C/C=C\C/C=C\CC (stereo not given) | > 18.8 | > 18.8 | – | > 18.8 | > 18.8 | > 18.8 | > 18.8 | – | > 18.8 | – | – | –
5 | CC1=NN(C(=O)c2ccc(Cl)cc2)C(=O)/C1=C/c1ccc(O)cc1 | – | > 100 | > 100 | > 100 | > 100 | > 100 | – | – | – | – | – | –
6 | CCOC(=O)/C=C/c1c[nH]c(C(=O)OCC)c1 | > 100 | – | > 100 | > 100 | > 100 | > 100 | > 100 | – | > 100 | > 100 | > 100 | > 100
7 | FC(F)(F)C1(C(F)(F)F)O[SiH]2(OC(C(F)(F)F)(C(F)(F)F)c3ccccc32)c2ccccc21 | 53.2 | 38.5 | 39.4 | – | – | 18.4 | 52.8 | – | 75.1 | – | – | –
8 | COc1ccc(CCc2ccccc2CC(=O)O)cc1 | > 100 | > 100 | > 100 | > 100 | > 100 | > 100 | > 100 | – | > 100 | – | – | –
9 | C/C(=N\NC(=S)NNC(=S)N(C)c1ccccc1)c1ccccn1 | > 100 | > 100 | 7.59 | > 100 | > 100 | – | > 100 | – | 0.732 | – | – | –
10 | N#CC(NNC(=O)c1ccccc1O)c1ccccc1 (stereo not given) | > 100 | > 100 | > 100 | – | > 100 | > 100 | > 100 | – | > 100 | – | – | –
11 | Nc1nc(Cl)cc(NCCCCCCCCCCCCNc2cc(Cl)nc(N)n2)n1 | 58 | 53 | > 100 | 26.4 | > 100 | > 100 | – | – | > 100 | – | – | –
